Experimental data published in US20190216707A1, “COMPOSITION FOR PREVENTING HAIR LOSS AND PROMOTING HAIR GROWTH, COMPRISING PHYTOESTROGEN AS AN ACTIVE INGREDIENT” (STEMORE CO., LTD., priority 2016, published 2019).

Legend:
[1] = test system: immortalized dermal papilla cells (I-DPCs); assay: Proliferation of immortalized dermal papilla cells (Incucyte, phase object confluence); type: cell-based, Human; details: FIGS. 1A to 1D; for effect on the proliferation of I-DPCs (phase object confluence, %): 0.1 μM, 1 μM or 10 μM, cultured for 72 hours; for proliferation of I-DPCs: concentration of 1 μM to 10 μM
Experimental: Human-derived immortalized dermal papilla cells (I-DPCs; donated by Professor Sungyoung Kwan of the College of Medicine at Kyungpook National University; Shin, Seung-Hyun, et al. “Establishment and characterization of an immortalized human dermal papilla cell line.” BMB reports 44.8 (2011): 512-516.) were cultured in Follicle Dermal Papilla Cell Growth Medium supplemented with 10% fetal bovine serum […] and penicillin-streptomycin antibiotics for 3 days to prepare a dermal papilla cell line. On day 3 of culture, the cells cultured in the culture dish were transferred to a 96-well plate, and when the cells were attached to the bottom of each well, each well was treated with DO-10B, DO-14, DO-17, and DO-20 at a concentration of 10 μM and cultured for 48 hours.
In particular, the I-DP cell line was prepared by culturing under the same conditions as in Example <2-1>, and the cells were treated with DO-10B, DO-14, DO-17, and DO-20 at a concentration of 0.1 μM, 1 μM, or 10 μM in a cell culture medium, and then cultured for a total of 72 hours. At 0, 12, 24, 36, 48, 60, and 72 hours after the start of culture, the degree of saturation of cells attached to the bottom of each well (phase object confluence, %) was confirmed using the Incucyte System™.

C3H/HeNCrljOri mice = assay: Hair growth promotion on the hair-removed back of mice; type: in vivo; details: PBS containing 1 μM compound subcutaneously injected, 2 weeks; for hair cycle induction / hair growth, visually confirmed, compared to the non-administered group: FIG. 2; for hair weight compared with the minoxidil-administered control / hair weight relative to the non-administered control: FIG. 3
Excerpt: In particular, to confirm the effects of DO-10B, DO-14, DO-17, and DO-20 on hair growth promotion when applied and subcutaneously administered, 6-week-old male C3H/HeNCrljOri mice were purchased and divided into a negative control, a positive control (minoxidil-treated group), and groups treated with DO-10B, DO-14, DO-17, and DO-20 to be used for experiments. To confirm a hair growth effect in the mice, when the mice became 6 weeks of age, first, the hair of the back of each mouse was removed using a clipper.
To confirm the effects of DO-10B, DO-14, DO-17, and DO-20 on hair growth promotion when subcutaneously injected, PBS containing 1 μM DO-10B, DO-14, DO-17, and DO-20 was subcutaneously injected into the hair-removed backs of mice at a daily cycle of 2 to 3 times, and the mice were raised for a total of 2 weeks. After the end of the rearing period, the hair of the back of each mouse was removed again using a mouse clipper, and the weight of the collected hair was measured to compare the hair weights of the non-administered group and the minoxidil-administered group.

| Molecule | effect on the proliferation of I-DPCs (phase object confluence, %) [1] | proliferation of I-DPCs [1] | hair cycle induction (C3H/HeNCrljOri mice) | hair growth, visually confirmed, compared to the non-administered group (C3H/HeNCrljOri mice) | hair weight compared with the minoxidil-administered control (C3H/HeNCrljOri mice) | hair weight relative to the non-administered control (C3H/HeNCrljOri mice) |
| --- | --- | --- | --- | --- | --- | --- |
| COc1cc2c(cc1O)[C@@H]1COc3cc(O)ccc3[C@@H]1O2 [DO-17, (6aR, 11aR)-3,8-dihydroxy-9-methoxypterocarpan] | concentration-dependent manner | significantly promoted | induced to the anagen phase | significant hair growth | equal to or greater than that of the minoxidil-administered control | about two-fold or more |
| COc1ccc2c(c1)OC1c3ccc(O)cc3OCC21 (stereo not drawn) [DO-20, 3-hydroxy-9-methoxypterocarpan] | concentration-dependent manner | significantly promoted | induced to the anagen phase | significant hair growth | equal to or greater than that of the minoxidil-administered control | about two-fold or more |
| (3R)-5′-methoxyvestiol [DO-14] | concentration-dependent manner | significantly promoted | induced to the anagen phase | significant hair growth | equal to or greater than that of the minoxidil-administered control | about two-fold or more |
| violanone [DO-10B] | concentration-dependent manner | significantly promoted | induced to the anagen phase | significant hair growth | equal to or greater than that of the minoxidil-administered control | about two-fold or more |
